Test results published in US11020383B2, “Methods for the treatment of cancer metastasis” (THE BOARD OF REGENTS OF THE UNIVERSITY OF TEXAS SYSTEM, priority 2017, dated 2021).
“Also recorded” adds a separate entry of the source.

Tests used:
[1] = test system: circulating tumor cells (CTCs); assay: Biophysical profiling of CTCs by atomic force microscopy (PF QNM AFM); assay type: in vivo, nude mice; settings: CTCs from blood of B1-treated vs control mice
From the text: It was postulated that the differences in profiles of circulating macrophages, which may destroy CTCs or help them in seeding metastases, are indicative of the metastatic potential of CTCs. To determine the metastatic potential of CTCs isolated from the blood of human prostate cancer patients and mouse cancer models, biophysical profiling by atomic force microscopy (AFM) was employed. This method was used to confirm the decreased aggressiveness of CTCs isolated from the B1-treated mouse.
In short, to determine the mechanical phenotype of cells Peak Force Quantitative Nanomechanical Atomic Force Microscopy (PF QNM AFM) imaging was employed. AFM is a type of stylus profilometry. In this particular AFM technique, a micro-sized probe (tip) interacts with a cell surface with strictly controlled force. At each point of contact, the tip position and the “force plot” presenting mechanical interactions of the tip with a cell surface are recorded. Images are created during raster scanning by the tip. The parameters extracted from the force plots are assembled into topographical (cell morphology) and mechanical maps. The mechanical parameters include elasticity (i.e., pressure needed to indent the cell in a reversible manner), deformation (i.e., the depth of maximal indentation enforced by the probe without breaking the cell membrane), and adhesion (i.e., force needed to lift the tip from the cell surface during the probe withdrawal).
A single AFM scan also provides a shape of the cell to distinguish between epithelial-like and mesenchymal-like phenotypes, and roughness of the cell surface that correlates with activity of apoptotic and EMT pathways (Chen et al, 2013; Osmulski et al., 2014). The integrated inverted fluorescent microscope allows collecting correlative immunocytochemical data about the scanned cells (FIG. 7).
The probe (tip on a cantilever) indents (vertical movement) and scans (lateral movement) the cell surface. After 10-15 min scan of a 1000-2000 μm^2 area, 5 maps of cell morphology, surface topography, elasticity, deformation, and adhesion (FIG. 6) are computed from the force plots (FIG. 7) created for each of the 4000-65,500 single tip-cell contact points with horizontal resolution of 100 nm, vertical resolution of 10 nm and forces as low as 100 pN. It is established that cancerous cell are much softer, deformable and more adhesive than their normal counterparts (Osmulski et al., 2014).
Second, the drug decreases aggressiveness of CTCs. The decrease is apparent by comparison of mechanical phenotypes of CTCs isolated from mice xenografted with human cultured androgen-independent prostate cancer cells C4-2, and treated with vehicle or with B1 (30 mg/kg). The data are presented in FIGS. 11-16 and in Table 1 (FIG. 11 is an extended version of FIG. 8).

[2] = test system: circulating tumor cells (CTCs); assay: Enumeration of circulating tumor cells in blood of xenografted mice; assay type: in vivo, nude mice
Method: (§1) CTCs and macrophages were isolated from the blood of two nude mice xenografted with human prostate cancer androgen resistant C4-2 cells and treated biweekly intratumorally with vehicle or B1 (30 mg/kg). In the vehicle-treated mouse, the tumor grew by size more than twice in the span of four weeks, whereas in the B1-treated mouse the tumor shrunk to about 50% of the size at the start of treatment (FIG. 2).
The anti-tumor actions of B1 in nude mice were confirmed by analysis of circulating tumor cells (CTCs). Enumeration of CTCs is used as a prognostic marker in cancer patients. The enumeration was extended to include not only canonical CTCs positive for epithelial marker EpCAM, but also EpCAM negative CTC-like cells positive for markers of epithelial-mesenchymal transition (EMT), indicative of increased aggressiveness of the cells (Chen et al., 2013).

[3] = test system: M1-polarized macrophages from U937 cells; assay: Live cell counts of U937-derived M1-type model macrophages; assay type: cell-based, Human; settings: 1 μM B1, n=4
Method: (§2) FIGS. 17A-B: Model M2-polarized macrophages are sensitive to the treatment with B1, in contrast to model M1-polarized macrophages. (FIG. 17A) Human cultured monocytic U937 cells were in vitro differentiated into M0 macrophages and then polarized into M1-type and M2-type macrophages, in the presence of vehicle (DMSO; control) or in the presence of 1 μM B1. The inventors used established protocol to differentiate U937 cells into macrophages (M0) with PMA (phorbol myristate acetate) and then polarize them into model M1 and M2-like types with interferon γ and LPS (lipopolysaccharide) or interleukins IL-4 and IL-13, respectively. The identity of M1-type and M2-type model macrophages was confirmed by cell staining with specific markers: the fluorescent antibodies recognizing surface proteins CD80 (for M1) and CD163 (for M2). (FIG. 17B) Counts of live cells cultured in the presence or absence of B1 are presented.
(§3) And fourth, the anti-M2 macrophages actions were confirmed in cell culture model.

[4] = PD/PK study in mice xenografted with RPMI 8226 cells; assay type: in vivo, SCID mice; settings: single 30 mg/kg i.v.
Method: The study involved 11 female SCID mice, with 3 control mice injected with vehicle (5% ethanol, 5% cremophor in water with 5% dextrose [D5W]) and […] injected with B1. The presence of B1 was detected by mass spectrometry in the tumors of B1-injected mice 8 and 12 hours post-injection, at concentrations up to 30.5 ng/g.

[5] = test system: human C4-2 prostate cancer cells; assay: Liver micrometastasis by H&E histology in C4-2 tumor-bearing nude mice; assay type: in vivo
From the text: FIG. 10: H&E stained histological liver slices of control nude mice with a tumor induced using human C4-2 prostate cancer cells. Suspected micrometastasis sites are marked with black rings. A scale bar represents 500 μm. Micrometastasis was detected with an average frequency in the control group (untreated) 3.75 per mice, whereas in the B1 treated group it was 1.33 per mice.
(§4) Importantly, in the second, third and fourth mechanisms, the drug acts independently from the size of primary tumor. This was an unexpected effect.

[6] = test system: M2-polarized macrophages from U937 cells; assay: Live cell counts of U937-derived M2-type model macrophages; assay type: cell-based, Human; settings: 1 μM B1, T test, n=4
Method: as §2, §3

[7] = test system: proteasome; settings: cited from earlier work
[8] = B1 maximum tolerated dose study; assay type: in vivo
Method: A study to determine the maximum tolerated dose was performed on 30 female CB. 17 SCID mice divided into six groups, five animals each. B1 was administered intravenously (i.v.) once a day (q.d.; three groups) or biweekly (three groups), at concentrations of 3 mg/kg, 10 mg/kg or 30 mg/kg, dissolved in 5% ethanol, 5% cremophor in water with 5% dextrose [D5W]. Mice were treated for 28 days, weighted daily on days 1-5 and then on a twice weekly schedule until day 28. They were observed frequently for adverse effects of treatment. […] Thus, B1 is non-toxic for mice even at the highest tested dose, 30 mg/kg.

[9] = test system: human cultured androgen-independent prostate cancer cells C4-2; assay: Efficacy study in NOD-SCID mice xenografted with C4-2 cells; assay type: in vivo
Method: FIG. 18. […] The efficacy study was performed with mice xenografted with human cultured androgen-independent prostate cancer cells C4-2. The study involved eleven NOD-SCID mice. […] tumor-growing mice were treated intra-tumorally (IT) with 30 mg/kg B1 twice a week for up to three weeks. The control group (four mice) received a B1 vehicle (dimethylsulfoxide; DMSO). Tumor sizes were measured twice a week.

[10] = test system: human prostate cancer androgen resistant C4-2 cells; assay: Growth of primary tumor in nude mice xenografted with C4-2 cells; assay type: in vivo
From the text: In the vehicle-treated mouse, the tumor grew by size more than twice in the span of four weeks, whereas in the B1-treated mouse the tumor shrunk to about 50% of the size at the start of treatment (FIG. 2).
As shown herein, B1 exerts anti-metastatic actions with multiple mechanisms. First, the drug attenuates the growth of the primary tumor. Large tumors shed large number of metastasis seeding circulating tumor cells into circulation, thus increasing the chance of successful colonization of metastatic sites.
as §4

[11] = test system: cultured breast cancer cells; settings: breast cancer cells poorly responsive to bortezomib; cited from earlier work
[12] = test system: M1 and M2 macrophages; assay: Enumeration of circulating M1 and M2 macrophages in blood of xenografted mice; assay type: in vivo, nude mice
Method: as §1
However, the numbers of circulating macrophages were also much lower in the blood of the B1-treated mouse. […] Consistently, the ratios of pro-tumor and anti-tumor macrophages in control and B1-treated mouse were approximated as 2.5 and 0.5, respectively.
Third, the drug boosts natural anti-cancer immune response. It promotes anti-metastatic profile of macrophages co-purifying with CTCs in the nude mice xenografted with human cultured androgen-independent prostate cancer cells C4-2, and treated with vehicle or with B1 (30 mg/kg). […] Data from one control and one treated mouse are presented in FIG. 5, with data from seven control and six treated mice presented below.

[13] = test system: mTOR pathway; settings: cited from earlier work
[14] = B1 treated vs control mice (FIG. 16)
[15] = mice with xenografted prostate tumors
[16] = one B1-treated vs one vehicle mouse (FIG. 5)
[17] = seven control and six treated nude mice, B1 30 mg/kg

## COc1cc(CCCOC(=O)C2CCCCN2C(=O)C(=O)C2CCCCC2)cc(OC)c1OC (stereo not drawn) [Compound B1, 3-(3,4,5-trimethoxyphenyl)propyl 1-(2-cyclohexyl-2-oxoacetyl) piperidine-2-carboxylate]
[1]; AFM (FIG. 8, FIG. 11)
  CTC adhesion vs vehicle: less adhesive
  CTC deformation vs vehicle: less deformable
  CTC stiffness (elasticity, Young modulus) vs vehicle: harder; also recorded: stiffer
[1]; mechanical phenotype
  aggressiveness of CTCs: low aggressiveness; also recorded: significantly lowered aggressiveness
[2]; [14]
  number of highly invasive post-EMT CTCs: diminished
[2]; B1 treated vs control mice, heat map cluster analysis (FIG. 16)
  formation of CTCs clusters: diminished formation
[2]; [15]
  decrease of abundance of cancer cells in the blood stream vs vehicle: about five-fold
[2]; one B1-treated vs one vehicle mouse, 30 mg/kg intratumorally, EpCAM or vimentin (FIG. 4)
  numbers of CTCs in blood vs vehicle-treated mouse: significantly lower
[3]
  counts of live M1 model macrophages vs control: did not affect viability; also recorded: did not differ
[4]; 8 and 12 hours post-injection, mass spectrometry
  concentration of B1 in the tumors: up to 30.5 ng/g
[4]; RPMI 8226 xenograft
  tissue localization: localized to the xenografted tumor site
[5]; B1-treated mice (FIG. 10)
  incidence of micrometastases in livers vs controls: decreased incidence
[5]; B1 treated group (untreated control 3.75)
  average frequency of liver micrometastasis: 1.33 per mice
[6]
  counts of live M2-type model macrophages vs control: significantly attenuating viability; also recorded: the difference was statistically significant
[7]
  26S assembling: interferes with 26S assembling
  affinity of core particle toward bortezomib: increases affinity
  concentration at which proteasome activities are influenced: nanomolar concentrations
[8]; 30 mg/kg i.v., mice
  toxicity at the highest tested dose: non-toxic
[8]; i.v. q.d. or biweekly, 3, 10 or 30 mg/kg, 28 days
  adverse effects on behavior: no adverse effects
[8]; i.v. q.d. or biweekly, 3, 10 or 30 mg/kg, 28 days (FIG. 9)
  differences in body weight between the groups: No statistically significant differences
[9]; 30 mg/kg B1 intra-tumorally twice a week
  changes in the weight of animals: did not result in detectable changes
[9]; 30 mg/kg B1 intra-tumorally twice a week for up to three weeks (FIG. 18)
  tumor growth vs control group: Significant inhibition; also recorded: significantly attenuated
[10]; one nude mouse, C4-2 xenograft, B1 30 mg/kg intratumorally biweekly, four weeks (FIG. 2)
  tumor size relative to the size at the start of treatment: about 50%
[10]; selected group of seven control and six B1-treated mice
  difference in tumor volume increase between control and B1-treated tumors: no significant difference
[11]
  cytotoxic effects with bortezomib: strong cytotoxic effects
[12]; B1-treated mouse, blood (control mouse 2.5)
  ratio of pro-tumor (M2) and anti-tumor (M1) macrophages: ~0.5
[12]; [14]
  formation of CTC-M2 (chaperoning) clusters: limited formation
  formation of M1-CTC (predatory) clusters: enhanced formation
[12]; [15]
  decrease of chaperone immune cells (M2 macrophages) vs vehicle: about four-fold
  decrease of the ratio of M2 macrophages to M1 macrophages vs vehicle-treated mouse: five-fold
[12]; [16]
  M2 pro-tumor macrophages, control mouse relative to B1-treated mouse: more than four-times
  number of M1 predator (anti-tumor) macrophages vs control mouse: very similar
[12]; one B1-treated vs one vehicle mouse, 30 mg/kg intratumorally
  numbers of circulating macrophages vs vehicle-treated mouse: much lower
[12]; [17]
  number of anti-cancer M1-type macrophages vs control: larger number
  number of pro-cancer M2-type macrophages vs control: generally lower number
[13]
  effect on mTOR pathway: not affecting
